# Results: PMC7064328 (Environmental Health Perspectives, 2020)
# Experiments:
# Type in all cases: in vivo, mouse (CD-1)
# [1] = tested on: Pregnant CD-1 mice; experiment: Clinical chemistry of dam serum and urine; details: for ALB / ALP / ALT / AST / BUN / Chol / Cre / Glu / HDL / LDL / SDH / TBA / TP / Trig: dam serum; for Ucrea: dam urine
# Method: Dam livers, kidneys, and placentas were trimmed and embedded by the NIEHS Mouse Embryo Phenotyping Core. Tissues collected at necropsy were fixed in 4% PFA for 72 h and paraffin embedded, and 5-μm sections were prepared and stained with hematoxylin and eosin (H&E). Pathology was evaluated and a pathology review conducted by S.A.E. Diplomate American College of Veterinary Pathologists (DACVP). Pathology reviews were conducted as an informed approach analysis [e.g., nonblinded analysis; see Sills et al. ([2019])]. Select tissue slides were scanned using the AT2 Scanner (Aperio). Images were then captured for publication using the ImageScope software; version 12.3.0.5056 (Aperio). Serum and urine obtained from dams in Block 2 were analyzed using the AU480 clinical chemistry analyzer (Beckman Coulter Inc.). Reagents and calibration standards used to measure alkaline phosphatase (ALP), alanine aminotransferase (ALT), aspartate aminotransferase (AST), blood urea nitrogen (BUN), serum creatinine, urine creatinine, glucose (Glu), total protein (TP), triglyceride (Trig), high-density lipoprotein (HDL), cholesterol (Chol), and albumin (ALB) were purchased from Beckman Coulter Inc. Reagents for sorbitol dehydrogenase (SDH), total bile acid (TBA), and micro-TP were purchased from Sekisui Diagnostics. The reagent used to measure low-density lipoprotein (LDL) was purchased form Diazyme Laboratories.
# [2] = Litter parameters at necropsy (implantation sites, resorptions, viable and nonviable embryos); details: female, CD-1, mouse, in vivo, oral, percent of implantation sites
# Method: (§1) On the day of necropsy, dams received daily oral gavage between 0700 and 0800 hours and were weighed and then euthanized humanely by swift decapitation, and serum was collected. In Block 1, necropsies were completed from 0800 to 1600 hours, and in Block 2, necropsies were completed from 0800 to 1200 hours. Serum from dams euthanized in Block 1 was snap frozen for internal dosimetry analyses. Serum and urine from Block 2 dams were reserved for clinical chemistry analyses. In both blocks, the uterus was removed, and total implantation sites were counted based on gross observation of an implantation nodule along the uterine horn. Viable embryos, nonviable embryos, and sites of resorption were counted based on gross observation. Embryos were considered viable if they were properly formed, were not pale in color, and were of similar size to neighboring embryos. Embryos that were poorly formed and pale in color (without heartbeat) were considered nonviable. Sites of resorption were defined as a dark red–appearing clot-like nodule apparent on gross observation.
# [3] = tested on: Pregnant CD-1 mice; experiment: as above; details: for % nonviable / % resorbed: percent of implantation sites
# Method: as §1
structure (smiles),measurement,setting,value
"O=C(O)C(F)(F)C(F)(F)C(F)(F)C(F)(F)C(F)(F)C(F)(F)C(F)(F)F [PFOA, Perfluorooctanoic acid]",Dam serum Trig lowered vs controls,"[1]; E11.5, 1 mg/kg/d",37%
same,Dam serum Trig lowered vs controls,"[1]; E11.5, 5 mg/kg/d",58%
same,Serum Glu lower relative to controls,"[1]; E11.5, 5 mg/kg/d, p=0.06",20%
same,Dam serum Trig lower vs controls,"[1]; E17.5, 5 mg/kg/d",66%
same,LDL lower vs controls,"[1]; E17.5, 5 mg/kg/d",50%
same,ALT increase relative to controls,"[1]; Table 2 (E11.5), 5 mg/kg/d, not statistically significant",172%
same,ALB,"[1]; E11.5, 1 mg/kg/d",2.42±0.22 (5) g/dL
same,ALP,"[1]; E11.5, 1 mg/kg/d",54.6±4.4 (5) U/L
same,ALT,"[1]; E11.5, 1 mg/kg/d",28.8±11.5 (5) U/L
same,AST,"[1]; E11.5, 1 mg/kg/d",144.6±167.6 (5) U/L
same,BUN,"[1]; E11.5, 1 mg/kg/d",15.0±2.7 (5) mg/dL
same,Chol,"[1]; E11.5, 1 mg/kg/d",68.8±18.0 (5) mg/dL
same,Cre,"[1]; E11.5, 1 mg/kg/d",0.2±0.05 (5) mg/dL
same,Glu,"[1]; E11.5, 1 mg/kg/d",278.4±27.8 (5) mg/dL
same,HDL,"[1]; E11.5, 1 mg/kg/d",34.8±10.9 (5) mg/dL
same,LDL,"[1]; E11.5, 1 mg/kg/d",12.2±1.9 (5) mg/dL
same,SDH,"[1]; E11.5, 1 mg/kg/d",8.4±7.8 (5) U/L
same,TBA,"[1]; E11.5, 1 mg/kg/d",1.5±0.58 (4) μM/L
same,TP,"[1]; E11.5, 1 mg/kg/d",4.04±0.3 (5) g/dL
same,Trig,"[1]; E11.5, 1 mg/kg/d",130.4±16.2 (5) mg/dL
same,ALB,"[1]; E11.5, 5 mg/kg/d",2.36±0.21 (5) g/dL
same,ALP,"[1]; E11.5, 5 mg/kg/d",56.6±35.6 (5) U/L
same,ALT,"[1]; E11.5, 5 mg/kg/d",70.8±16.2 (5) U/L
same,AST,"[1]; E11.5, 5 mg/kg/d",92.6±20.3 (5) U/L
same,BUN,"[1]; E11.5, 5 mg/kg/d",15.8±1.3 (5) mg/dL
same,Chol,"[1]; E11.5, 5 mg/kg/d",69.4±9.9 (5) mg/dL
same,Cre,"[1]; E11.5, 5 mg/kg/d",0.18±0.03 (5) mg/dL
same,Glu,"[1]; E11.5, 5 mg/kg/d",220.4±22.1 (5) mg/dL
same,HDL,"[1]; E11.5, 5 mg/kg/d",42.6±4.0 (5) mg/dL
same,LDL,"[1]; E11.5, 5 mg/kg/d",10.6±1.5 (5) mg/dL
same,SDH,"[1]; E11.5, 5 mg/kg/d",12.4±8.3 (5) U/L
same,TBA,"[1]; E11.5, 5 mg/kg/d",2.0±0.0 (5) μM/L
same,TP,"[1]; E11.5, 5 mg/kg/d",3.78±0.22 (5) g/dL
same,Trig,"[1]; E11.5, 5 mg/kg/d",86.4±15.8 (5) mg/dL
same,ALB,"[1]; E17.5, 1 mg/kg/d",2.04±0.09 (5) g/dL
same,ALP,"[1]; E17.5, 1 mg/kg/d",50.2±4.2 (5) U/L
same,ALT,"[1]; E17.5, 1 mg/kg/d",7.0±4.3 (5) U/L
same,AST,"[1]; E17.5, 1 mg/kg/d",73.0±14.0 (5) U/L
same,BUN,"[1]; E17.5, 1 mg/kg/d",16.4±1.7 (5) mg/dL
same,Chol,"[1]; E17.5, 1 mg/kg/d",83.8±20.0 (5) mg/dL
same,Cre,"[1]; E17.5, 1 mg/kg/d",0.2±0.01 (5) mg/dL
same,Glu,"[1]; E17.5, 1 mg/kg/d",121.0±17.3 (5) mg/dL
same,HDL,"[1]; E17.5, 1 mg/kg/d",37.2±6.2 (5) mg/dL
same,LDL,"[1]; E17.5, 1 mg/kg/d",24.0±10.7 (5) mg/dL
same,SDH,"[1]; E17.5, 1 mg/kg/d",3.4±6.1 (5) U/L
same,TBA,"[1]; E17.5, 1 mg/kg/d",3.0±1.2 (5) μM/L
same,TP,"[1]; E17.5, 1 mg/kg/d",3.9±0.11 (5) g/dL
same,Trig,"[1]; E17.5, 1 mg/kg/d",364.0±272.9 (5) mg/dL
same,ALB,"[1]; E17.5, 5 mg/kg/d",1.53±0.27 (6) g/dL
same,ALP,"[1]; E17.5, 5 mg/kg/d",74.8±23.8 (6) U/L
same,ALT,"[1]; E17.5, 5 mg/kg/d",16.8±7.7 (6) U/L
same,AST,"[1]; E17.5, 5 mg/kg/d",172.2±63.1 (6) U/L
same,BUN,"[1]; E17.5, 5 mg/kg/d",18.7±5.3 (6) mg/dL
same,Chol,"[1]; E17.5, 5 mg/kg/d",68.5±16.4 (6) mg/dL
same,Cre,"[1]; E17.5, 5 mg/kg/d",0.16±0.06 (6) mg/dL
same,Glu,"[1]; E17.5, 5 mg/kg/d",112.0±15.8 (6) mg/dL
same,HDL,"[1]; E17.5, 5 mg/kg/d",38.8±11.2 (6) mg/dL
same,LDL,"[1]; E17.5, 5 mg/kg/d",11.0±3.0 (5) mg/dL
same,SDH,"[1]; E17.5, 5 mg/kg/d",24.3±11.2 (6) U/L
same,TBA,"[1]; E17.5, 5 mg/kg/d",8.0±7.9 (6) μM/L
same,TP,"[1]; E17.5, 5 mg/kg/d",2.8±0.39 (6) g/dL
same,Trig,"[1]; E17.5, 5 mg/kg/d",159.0±65.5 (6) mg/dL
same,Ucrea,"[1]; E11.5, 1 mg/kg/d",92.0±13.1 (4) mg/dL
same,Ucrea,"[1]; E11.5, 5 mg/kg/d",50.1±33.8 (4) mg/dL
same,Ucrea,"[1]; E17.5, 1 mg/kg/d",24.7±23.1 (2) mg/dL
same,Ucrea,"[1]; E17.5, 5 mg/kg/d",11.5±5.9 (3) mg/dL
same,viability,"[2]; 1 mg/kg/d, E11.5",96 ± 3.3%
same,viability,"[2]; 1 mg/kg/d, E17.5",96.8 ± 4.1%
same,viability,"[2]; 5 mg/kg/d, E11.5",95.9 ± 5.9%
same,viability,"[2]; 5 mg/kg/d, E17.5",97.7 ± 3.4%
same,No. dead embryos,"[3]; E11.5, 1 mg/kg/d",0.0 ± 0.0
same,No. implantation sites,"[3]; E11.5, 1 mg/kg/d",15.5 ± 2.7
same,No. resorptions,"[3]; E11.5, 1 mg/kg/d",0.6 ± 0.5
same,No. viable embryos,"[3]; E11.5, 1 mg/kg/d",14.8 ± 2.5
same,No. dead embryos,"[3]; E11.5, 5 mg/kg/d",0.1 ± 0.3
same,No. implantation sites,"[3]; E11.5, 5 mg/kg/d",14.5 ± 2.3
same,No. resorptions,"[3]; E11.5, 5 mg/kg/d",0.5 ± 0.9
same,No. viable embryos,"[3]; E11.5, 5 mg/kg/d",13.9 ± 2.2
same,No. dead embryos,"[3]; E17.5, 1 mg/kg/d",0.1 ± 0.3
same,No. implantation sites,"[3]; E17.5, 1 mg/kg/d",13.5 ± 2.0
same,No. resorptions,"[3]; E17.5, 1 mg/kg/d",0.3 ± 0.5
same,No. viable embryos,"[3]; E17.5, 1 mg/kg/d",13.1 ± 2.1
same,No. dead embryos,"[3]; E17.5, 5 mg/kg/d",0.0 ± 0.0
same,No. implantation sites,"[3]; E17.5, 5 mg/kg/d",13.7 ± 2.1
same,No. resorptions,"[3]; E17.5, 5 mg/kg/d",0.3 ± 0.5
same,No. viable embryos,"[3]; E17.5, 5 mg/kg/d",13.3 ± 1.9
same,% nonviable,"[3]; E11.5, 1 mg/kg/d",0.0 ± 0.0%
same,% resorbed,"[3]; E11.5, 1 mg/kg/d",4.0 ± 3.3%
same,% nonviable,"[3]; E11.5, 5 mg/kg/d",0.6 ± 1.9%
same,% resorbed,"[3]; E11.5, 5 mg/kg/d",3.6 ± 5.9%
same,% nonviable,"[3]; E17.5, 1 mg/kg/d",0.6 ± 2.1%
same,% resorbed,"[3]; E17.5, 1 mg/kg/d",2.6 ± 3.9%
same,% nonviable,"[3]; E17.5, 5 mg/kg/d",0.0 ± 0.0%
same,% resorbed,"[3]; E17.5, 5 mg/kg/d",2.3 ± 3.4%
